Assay [1] has as its target T1, Ephrin type-B receptor 2 (Homo sapiens) (UniProt P29323).
T1 sequence (whole entry): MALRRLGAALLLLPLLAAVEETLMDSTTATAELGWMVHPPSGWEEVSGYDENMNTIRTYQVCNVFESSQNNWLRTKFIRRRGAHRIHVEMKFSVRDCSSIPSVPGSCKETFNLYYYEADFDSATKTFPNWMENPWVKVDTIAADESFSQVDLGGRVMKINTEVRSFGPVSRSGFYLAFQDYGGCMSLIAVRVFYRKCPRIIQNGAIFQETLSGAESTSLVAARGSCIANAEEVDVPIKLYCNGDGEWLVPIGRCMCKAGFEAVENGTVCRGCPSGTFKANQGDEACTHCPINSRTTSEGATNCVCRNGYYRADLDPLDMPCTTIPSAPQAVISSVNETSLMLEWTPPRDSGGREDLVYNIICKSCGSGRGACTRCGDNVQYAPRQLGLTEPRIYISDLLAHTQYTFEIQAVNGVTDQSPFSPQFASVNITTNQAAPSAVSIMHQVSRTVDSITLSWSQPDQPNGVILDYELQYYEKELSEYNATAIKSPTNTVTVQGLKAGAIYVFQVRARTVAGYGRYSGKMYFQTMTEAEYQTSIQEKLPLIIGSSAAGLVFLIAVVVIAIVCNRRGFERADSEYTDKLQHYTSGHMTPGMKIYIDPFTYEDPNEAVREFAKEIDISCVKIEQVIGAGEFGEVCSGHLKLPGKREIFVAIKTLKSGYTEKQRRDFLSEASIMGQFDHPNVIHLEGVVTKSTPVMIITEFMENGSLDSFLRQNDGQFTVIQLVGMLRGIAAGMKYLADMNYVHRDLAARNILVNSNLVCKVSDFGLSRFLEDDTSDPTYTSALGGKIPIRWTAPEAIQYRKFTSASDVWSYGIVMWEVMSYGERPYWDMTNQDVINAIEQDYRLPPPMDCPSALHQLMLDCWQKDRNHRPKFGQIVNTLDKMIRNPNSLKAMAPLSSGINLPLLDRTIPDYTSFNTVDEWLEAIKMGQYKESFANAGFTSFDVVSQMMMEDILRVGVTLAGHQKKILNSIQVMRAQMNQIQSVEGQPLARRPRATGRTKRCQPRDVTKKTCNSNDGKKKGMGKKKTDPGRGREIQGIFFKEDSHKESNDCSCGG
Briefly: Selectivity interaction (KinomeScan (DiscoverX)) EUB0000092b EPHB2. The following applies: at 10 µM.

In assay [2] the target is T2, Cyclin-dependent kinase-like 5 (Homo sapiens) (UniProt O76039).
T2 sequence (whole entry): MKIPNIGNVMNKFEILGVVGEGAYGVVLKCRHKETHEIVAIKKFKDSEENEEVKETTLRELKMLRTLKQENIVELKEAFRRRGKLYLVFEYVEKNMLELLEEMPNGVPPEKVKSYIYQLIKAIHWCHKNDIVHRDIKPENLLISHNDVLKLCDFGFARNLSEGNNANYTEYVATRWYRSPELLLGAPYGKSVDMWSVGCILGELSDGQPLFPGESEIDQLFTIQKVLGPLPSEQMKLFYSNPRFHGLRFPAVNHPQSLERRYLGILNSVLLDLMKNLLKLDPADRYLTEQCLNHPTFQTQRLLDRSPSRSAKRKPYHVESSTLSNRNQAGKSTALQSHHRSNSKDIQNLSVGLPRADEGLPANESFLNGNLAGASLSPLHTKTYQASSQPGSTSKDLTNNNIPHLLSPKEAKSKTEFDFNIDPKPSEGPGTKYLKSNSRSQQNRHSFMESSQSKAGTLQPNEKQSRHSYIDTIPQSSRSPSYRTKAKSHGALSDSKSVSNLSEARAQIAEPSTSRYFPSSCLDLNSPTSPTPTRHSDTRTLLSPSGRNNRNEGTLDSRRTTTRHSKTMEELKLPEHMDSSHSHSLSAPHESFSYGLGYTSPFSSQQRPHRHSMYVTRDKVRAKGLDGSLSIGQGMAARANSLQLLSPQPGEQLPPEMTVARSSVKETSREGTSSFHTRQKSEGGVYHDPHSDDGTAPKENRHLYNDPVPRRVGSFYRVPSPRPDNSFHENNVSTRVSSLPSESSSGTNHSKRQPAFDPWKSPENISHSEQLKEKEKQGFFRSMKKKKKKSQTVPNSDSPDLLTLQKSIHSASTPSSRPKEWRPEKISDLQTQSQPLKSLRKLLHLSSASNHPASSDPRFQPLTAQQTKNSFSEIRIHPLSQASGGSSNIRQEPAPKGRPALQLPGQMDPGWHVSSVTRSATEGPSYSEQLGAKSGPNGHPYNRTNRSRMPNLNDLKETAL
Put plainly: Selectivity interaction (KinomeScan (DiscoverX)) EUB0000655a CDKL5. The following applies: at 10 µM.

Assay [3] addresses Ephrin type-A receptor 2 (Homo sapiens) (UniProt P29317). Briefly: Selectivity interaction (KinomeScan (DiscoverX)) EUB0000655a EPHA2. The following applies: at 10 µM.
For assay [4], the target named is Transcription initiation factor TFIID subunit 1-like (Homo sapiens) (UniProt Q8IZX4). Briefly: Selectivity interaction (Bromodomain panel (DSF asssay)) EUB0000270b TAF1L.
Assay [5] concerns the target ALK tyrosine kinase receptor (Homo sapiens, UniProt Q9UM73). Briefly: Selectivity interaction (KinomeScan (DiscoverX)) EUB0000666a ALK. Particulars: at 10 µM.
For assay [6], the target named is Death-associated protein kinase 1 (Homo sapiens, UniProt P53355). Briefly: Selectivity interaction (Kinase panel (Invitrogen)) EUB0000639a DAPK1. The following applies: at 200 nM.
Assay [7] addresses Serine/threonine-protein kinase N1 (Homo sapiens, UniProt Q16512). Put plainly: Selectivity interaction (Kinase panel (33PanQinase(R) Activity Assay)) EUB0000877a PKN1.
In assay [8] the target is T3, Serine/threonine-protein kinase 17A (Homo sapiens) (UniProt Q9UEE5).
T3 sequence (whole entry): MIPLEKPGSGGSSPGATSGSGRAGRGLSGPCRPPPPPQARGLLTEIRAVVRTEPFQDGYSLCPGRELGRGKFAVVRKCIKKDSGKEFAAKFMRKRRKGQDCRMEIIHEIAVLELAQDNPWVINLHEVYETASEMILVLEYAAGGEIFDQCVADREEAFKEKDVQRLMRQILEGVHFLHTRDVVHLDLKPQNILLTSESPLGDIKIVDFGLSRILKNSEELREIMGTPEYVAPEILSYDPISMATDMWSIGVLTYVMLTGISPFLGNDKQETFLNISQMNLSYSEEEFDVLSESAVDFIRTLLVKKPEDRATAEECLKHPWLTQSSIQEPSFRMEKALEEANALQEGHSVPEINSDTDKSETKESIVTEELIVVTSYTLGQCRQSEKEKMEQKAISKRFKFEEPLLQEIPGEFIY
Briefly: Selectivity interaction (KinomeScan (DiscoverX)) EUB0000618a STK17A. The following applies: at 10 µM.

This note sets out measurements from ChEMBL document CHEMBL5465560, “Selectivity Literature for EUbOPEN Chemogenomic Library” (2024).

pIC50: −log10 of the molar value.

ALK tyrosine kinase receptor, sequence (Q9UM73 19-1620 limits assumed): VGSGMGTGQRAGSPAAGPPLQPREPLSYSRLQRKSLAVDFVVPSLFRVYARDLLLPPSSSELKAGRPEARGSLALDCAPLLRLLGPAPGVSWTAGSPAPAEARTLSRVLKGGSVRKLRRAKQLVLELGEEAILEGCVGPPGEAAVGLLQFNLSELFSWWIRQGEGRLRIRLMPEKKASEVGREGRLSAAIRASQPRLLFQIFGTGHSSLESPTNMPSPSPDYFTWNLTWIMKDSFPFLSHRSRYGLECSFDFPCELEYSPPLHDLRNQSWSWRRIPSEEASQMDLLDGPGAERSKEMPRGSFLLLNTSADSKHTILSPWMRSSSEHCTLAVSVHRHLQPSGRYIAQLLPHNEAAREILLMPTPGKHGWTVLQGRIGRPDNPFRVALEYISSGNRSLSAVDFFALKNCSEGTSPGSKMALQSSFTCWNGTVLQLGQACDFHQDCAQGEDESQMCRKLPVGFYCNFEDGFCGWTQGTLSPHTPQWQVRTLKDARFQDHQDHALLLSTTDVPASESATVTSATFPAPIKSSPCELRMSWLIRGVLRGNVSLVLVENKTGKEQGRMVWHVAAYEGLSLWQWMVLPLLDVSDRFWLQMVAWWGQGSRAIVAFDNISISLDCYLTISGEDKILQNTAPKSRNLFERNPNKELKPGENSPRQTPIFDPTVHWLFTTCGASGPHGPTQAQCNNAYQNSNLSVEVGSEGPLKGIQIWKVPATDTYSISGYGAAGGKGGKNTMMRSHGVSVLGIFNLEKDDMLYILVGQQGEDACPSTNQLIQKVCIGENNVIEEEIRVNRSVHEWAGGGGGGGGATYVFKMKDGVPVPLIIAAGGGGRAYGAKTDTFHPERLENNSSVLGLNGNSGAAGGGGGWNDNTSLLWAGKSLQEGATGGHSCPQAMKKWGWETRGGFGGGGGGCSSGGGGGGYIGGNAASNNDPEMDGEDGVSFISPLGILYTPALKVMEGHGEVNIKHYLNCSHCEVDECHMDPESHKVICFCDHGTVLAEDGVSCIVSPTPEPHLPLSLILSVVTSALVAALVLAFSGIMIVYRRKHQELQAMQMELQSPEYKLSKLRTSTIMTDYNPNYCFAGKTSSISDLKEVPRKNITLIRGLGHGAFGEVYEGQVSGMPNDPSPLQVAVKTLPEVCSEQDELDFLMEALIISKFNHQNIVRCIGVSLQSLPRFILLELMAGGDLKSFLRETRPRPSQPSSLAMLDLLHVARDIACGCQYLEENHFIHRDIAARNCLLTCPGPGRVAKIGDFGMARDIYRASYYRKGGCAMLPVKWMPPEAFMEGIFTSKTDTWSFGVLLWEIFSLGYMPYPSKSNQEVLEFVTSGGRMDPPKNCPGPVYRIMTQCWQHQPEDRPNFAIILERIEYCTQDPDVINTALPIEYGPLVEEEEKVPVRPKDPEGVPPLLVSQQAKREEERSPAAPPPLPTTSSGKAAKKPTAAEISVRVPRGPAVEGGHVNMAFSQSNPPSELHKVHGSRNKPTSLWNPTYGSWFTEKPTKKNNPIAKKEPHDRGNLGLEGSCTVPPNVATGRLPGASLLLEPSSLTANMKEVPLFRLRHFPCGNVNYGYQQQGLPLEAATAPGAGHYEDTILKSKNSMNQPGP
Serine/threonine-protein kinase N1, sequence (Q16512 whole entry): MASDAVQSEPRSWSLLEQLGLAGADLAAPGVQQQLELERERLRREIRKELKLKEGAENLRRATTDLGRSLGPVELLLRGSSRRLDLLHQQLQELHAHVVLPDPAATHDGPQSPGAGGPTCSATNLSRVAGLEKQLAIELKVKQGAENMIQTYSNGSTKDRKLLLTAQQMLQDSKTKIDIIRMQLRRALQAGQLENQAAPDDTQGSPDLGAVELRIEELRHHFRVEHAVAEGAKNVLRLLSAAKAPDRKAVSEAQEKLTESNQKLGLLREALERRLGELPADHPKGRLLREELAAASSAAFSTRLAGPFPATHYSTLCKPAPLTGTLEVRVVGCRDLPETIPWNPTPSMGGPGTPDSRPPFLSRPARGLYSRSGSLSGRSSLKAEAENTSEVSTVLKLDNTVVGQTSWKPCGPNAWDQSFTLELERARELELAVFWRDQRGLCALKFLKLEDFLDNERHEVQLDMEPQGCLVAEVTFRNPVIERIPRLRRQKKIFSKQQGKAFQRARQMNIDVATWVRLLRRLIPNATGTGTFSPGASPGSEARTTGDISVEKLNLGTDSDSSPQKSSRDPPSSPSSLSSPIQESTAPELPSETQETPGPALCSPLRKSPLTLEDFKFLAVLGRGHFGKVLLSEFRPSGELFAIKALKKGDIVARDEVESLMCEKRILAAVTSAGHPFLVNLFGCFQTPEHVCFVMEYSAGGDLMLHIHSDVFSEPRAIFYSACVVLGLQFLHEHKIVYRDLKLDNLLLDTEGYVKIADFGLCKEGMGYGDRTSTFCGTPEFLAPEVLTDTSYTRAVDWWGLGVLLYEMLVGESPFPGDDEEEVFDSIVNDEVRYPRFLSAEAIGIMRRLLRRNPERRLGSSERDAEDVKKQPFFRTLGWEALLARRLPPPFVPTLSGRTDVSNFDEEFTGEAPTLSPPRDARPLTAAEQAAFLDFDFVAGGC
Ephrin type-A receptor 2 (Homo sapiens), sequence (P29317 whole entry): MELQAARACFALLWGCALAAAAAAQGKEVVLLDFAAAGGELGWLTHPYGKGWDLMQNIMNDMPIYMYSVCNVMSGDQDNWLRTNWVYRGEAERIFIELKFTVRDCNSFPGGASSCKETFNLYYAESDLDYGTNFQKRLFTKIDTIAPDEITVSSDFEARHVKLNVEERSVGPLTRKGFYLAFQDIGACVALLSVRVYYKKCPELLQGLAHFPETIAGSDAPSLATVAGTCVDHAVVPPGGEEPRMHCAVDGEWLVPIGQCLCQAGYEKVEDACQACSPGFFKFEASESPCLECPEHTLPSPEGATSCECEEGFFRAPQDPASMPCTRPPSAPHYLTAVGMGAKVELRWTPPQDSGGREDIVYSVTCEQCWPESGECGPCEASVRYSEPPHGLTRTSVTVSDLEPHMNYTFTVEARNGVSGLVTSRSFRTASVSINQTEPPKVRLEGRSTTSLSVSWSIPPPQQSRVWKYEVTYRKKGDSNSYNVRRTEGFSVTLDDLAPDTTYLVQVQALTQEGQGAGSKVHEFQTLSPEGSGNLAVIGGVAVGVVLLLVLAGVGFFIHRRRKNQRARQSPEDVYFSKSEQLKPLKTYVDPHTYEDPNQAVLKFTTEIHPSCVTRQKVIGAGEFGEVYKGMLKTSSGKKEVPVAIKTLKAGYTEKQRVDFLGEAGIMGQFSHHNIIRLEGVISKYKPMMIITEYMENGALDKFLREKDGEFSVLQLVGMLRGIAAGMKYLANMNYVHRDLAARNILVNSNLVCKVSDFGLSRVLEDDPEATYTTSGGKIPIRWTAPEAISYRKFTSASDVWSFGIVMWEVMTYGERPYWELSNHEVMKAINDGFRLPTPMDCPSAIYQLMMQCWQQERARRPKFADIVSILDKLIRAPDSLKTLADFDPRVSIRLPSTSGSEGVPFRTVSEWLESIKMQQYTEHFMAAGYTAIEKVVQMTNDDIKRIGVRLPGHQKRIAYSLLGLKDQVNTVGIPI
Death-associated protein kinase 1, sequence (P53355 whole entry, looked up): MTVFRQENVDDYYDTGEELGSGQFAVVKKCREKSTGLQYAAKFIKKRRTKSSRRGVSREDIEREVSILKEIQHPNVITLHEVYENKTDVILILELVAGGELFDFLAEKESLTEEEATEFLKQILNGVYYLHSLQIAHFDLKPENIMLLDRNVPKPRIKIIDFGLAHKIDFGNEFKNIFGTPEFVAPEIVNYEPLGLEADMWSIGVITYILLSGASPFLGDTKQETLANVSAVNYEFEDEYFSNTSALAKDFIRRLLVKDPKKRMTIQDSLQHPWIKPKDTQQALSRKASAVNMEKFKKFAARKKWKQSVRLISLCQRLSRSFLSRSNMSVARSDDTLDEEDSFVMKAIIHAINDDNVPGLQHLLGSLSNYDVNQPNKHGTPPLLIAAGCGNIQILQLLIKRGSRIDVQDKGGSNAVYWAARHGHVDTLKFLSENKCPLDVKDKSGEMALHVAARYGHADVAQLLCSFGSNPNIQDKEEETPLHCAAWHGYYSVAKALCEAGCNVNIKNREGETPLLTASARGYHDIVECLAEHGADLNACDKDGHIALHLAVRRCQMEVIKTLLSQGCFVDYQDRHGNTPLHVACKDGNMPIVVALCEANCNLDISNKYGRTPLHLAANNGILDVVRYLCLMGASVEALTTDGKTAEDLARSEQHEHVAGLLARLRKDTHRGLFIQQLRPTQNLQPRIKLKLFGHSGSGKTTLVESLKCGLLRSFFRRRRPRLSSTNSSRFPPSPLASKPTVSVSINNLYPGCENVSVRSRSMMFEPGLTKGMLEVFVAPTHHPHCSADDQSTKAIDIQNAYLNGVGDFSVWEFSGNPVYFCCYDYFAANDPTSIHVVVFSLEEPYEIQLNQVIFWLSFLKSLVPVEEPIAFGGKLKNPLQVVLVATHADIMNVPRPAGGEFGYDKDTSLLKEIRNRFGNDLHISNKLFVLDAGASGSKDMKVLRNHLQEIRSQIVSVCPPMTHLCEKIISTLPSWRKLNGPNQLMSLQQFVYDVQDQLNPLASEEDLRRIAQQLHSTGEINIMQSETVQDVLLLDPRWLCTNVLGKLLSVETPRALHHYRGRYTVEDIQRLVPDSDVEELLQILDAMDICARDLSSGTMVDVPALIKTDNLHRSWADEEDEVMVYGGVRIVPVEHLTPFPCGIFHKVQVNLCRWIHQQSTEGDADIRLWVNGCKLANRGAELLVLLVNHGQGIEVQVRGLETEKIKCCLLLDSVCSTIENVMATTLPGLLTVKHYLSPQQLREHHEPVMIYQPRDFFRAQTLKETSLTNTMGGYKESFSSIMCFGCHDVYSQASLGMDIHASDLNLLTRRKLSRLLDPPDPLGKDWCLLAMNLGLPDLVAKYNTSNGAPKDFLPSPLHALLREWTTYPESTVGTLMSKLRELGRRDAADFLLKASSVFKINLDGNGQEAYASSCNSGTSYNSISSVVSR

`CCC(=O)N1CCN(c2ccc(-n3c(=O)ccc4cnc5ccc(-c6cnc7ccccc7c6)cc5c43)cc2C(F)(F)F)CC1` displayed a % of control in assay [1] of 100%.
For the molecule `CN(C)CCOc1ccc(-c2nc(-c3ccncc3)c(-c3ccc4c(c3)CC/C4=N\O)[nH]2)cc1`, the % of control in assay [2] stood at 100%; in assay [3], 83%.
In turn, `Cc1cc(CN)cc(C)c1-c1ncn(C)c1-c1cncn1C` gave a dTM in assay [4] of -1.56 K.
For `O=C(NOC[C@H](O)CO)c1ccc(F)c(F)c1Nc1ccc(I)cc1F`, the % of control in assay [5] was 100%.
On to `CC[C@@H]1[C@H](F)C(=O)N[C@@H]1COc1nccc2cc(C(N)=O)c(OC)cc12` [ZIMLOVISERTIB], for which the % of inhibition in assay [6] amounted to 16.2%.
For orientation: pIC50 means the IC50 on a negative log10 scale, so that one unit is a factor of ten. In assay [7], `CCC(=O)N1CC[C@H](Nc2ncnc3c2CN(c2cnc(OC)c(C(F)(F)F)c2)CC3)C1` [LENIOLISIB] gave a negative-log IC50 (pIC50) of less than 5.00.
As to `O[C@H]1CC[C@H](Nc2ncc3nc(Nc4c(F)cc(F)cc4F)n([C@H]4CCOC4)c3n2)CC1`, in assay [8], the % of control turned out to be 100%.
